Assay results reported in patent US9493460B2, “Diimide compounds” (UCL BUSINESS PLC, priority 2013, dated 2016).
pIC50: −log10 of the molar value.

How the values were obtained:
[1] = tested on: panel of cancer cell lines; experiment: SRB assay, panel of cancer cell lines and normal fibroblast line; assay type: cell-based, human; conditions: Homo sapiens, Fibroblast, 96 h exposure, read-out: IC50 values across the cell line panel
Method: (§1) Human cancer cell lines, MCF7 (breast), A549 (lung), Mia-PaCa2, PANC1 and HPAC (pancreatic), RCC4 and 786-0 renal, and the somatic human cell line WI-38 (lung fibroblast) were purchased from ATCC. Cell lines were maintained in appropriate medium supplemented with 10% foetal bovine serum (Invitrogen, UK), 2 mM L-glutamine (Invitrogen, Netherlands), and other components as specified by the suppliers. Cell lines were maintained at 37° C., 5% CO2 and routinely passaged. Drugs were dissolved in DMSO and filtered through 0.22 μm pore-size filter units before addition to cell line appropriate media. Cellular growth inhibition was measured using the sulforhodamine B (SRB) assay in 96 well plates as described previously.^1,2 Fifty percent inhibitory concentrations (IC50) were determined by taking the mean absorbance at 540 nm for each drug concentration expressed as a percentage of the absorbance of untreated control wells.
(§2) The anti-proliferative activity of the group of nine ND derivatives was assessed using the SRB assay following 96 h exposure to 2-fold serial dilutions of each compound (Table 2) in a panel of cancer cell lines together with a normal fibroblast line. […] In contrast the morpholine compounds all show sub-μM anti-proliferative activity in at least some of the cancer cell lines used and the two compounds 3d, 3h with n=3 —(CH2)n— linkers to the morpholine groups, show particularly potent activity in the Mia-PaCa2 and PANC1 pancreatic carcinoma and A549 lung adenocarcinoma cell lines (IC50 values of 10-20 nM).

[2] = tested on: human telomeric G-quadruplex DNA (F21T); experiment: FRET melting assay, human telomeric quadruplex; assay type: binding; conditions: FRET melting
From the text: The ability of the naphthalene diimide compounds to stabilize DNA sequences was investigated using a fluorescence resonance energy transfer (FRET) assay modified to be used as a high-throughput screen in a 96-well format. Several quadruplex sequences were studied (the human telomeric G-quadruplex DNA sequence 5′-FAM-d(GGG[TTAGGG]3)-TAMRA-3′ and the duplex sequence 5′-FAM-dTATAGCTATA-HEG-TATAGCTATA-TAMRA-3′ (HEG linker: [(—CH2—CH2—O—)6])), as well as two overlapping sequences from the HSP90 promoter region (HSP90a and HSP90b):
The labelled oligonucleotides have attached to them the donor fluorophore FAM: 6-carboxyfluorescein and the acceptor fluorophore TAMRA: 6-carboxytetramethylrhodamine. The FRET probe sequences were diluted from stock to the correct concentration (400 nM) in a 60 mM potassium cacodylate buffer (pH 7.4) and then annealed by heating to 85° C. for 10 min, followed by cooling to room temperature in the heating block. The compound was stored as a 10 mM stock solution in DMSO; final solutions (at 2×concentration) were prepared using 10 mM HCl in the initial 1:10 dilution, after which 60 mM potassium cacodylate buffer (pH 7.4) was used in all subsequent steps. The maximum HCl concentration in the reaction volume (at a ligand concentration of 20 μM) is thus 200 μM, well within the range of the buffer used. Relevant controls were also performed to check for interference with the assay. 96-Well plates (MJ Research, Waltham, Mass.) were prepared by aliquoting 50 μl of the annealed DNA into each well, followed by 50 μl of the compound solutions. Measurements were made on a DNA Engine Opticon (MJ Research) with excitation at 450-495 nm and detection at 515-545 nm. Fluorescence readings were taken at intervals of 0.5° C. in the range 30-100° C., with a constant temperature being maintained for 30 s prior to each reading to ensure a stable value. Final analysis of the data was carried out using a script written in the program Origin 7.0 (OriginLab Corp., Northampton, Mass.). The advanced curve-fitting function in Origin 7.0 was used for calculation of ΔTm values. All determinations were performed in triplicate or better. Esds in ΔTm are ±0.1° C.
The ability of compounds 3a-h to stabilize a human telomeric quadruplex was assessed by a high-throughput FRET (Fluorescence Resonance Energy Transfer) melting technique. […] None of the furan tetrahydrofuran, pyranose or acyclic ether compounds has any effect on quadruplex or duplex stability.
The T-loop sequence represents duplex DNA.

[3] = tested on: 786-O (renal) cells; experiment: SRB growth inhibition assay, 96 hr exposure, 786-O; assay type: cell-based, human; conditions: versus other lines of the panel
Method: as §1, §2
(§3) Next a series of structural isomers were tested.

[4] = tested on: Panc1 (pancreatic) cells; experiment: SRB growth inhibition assay, 96 hr exposure, Panc1; assay type: cell-based, human; conditions: Homo sapiens, PANC-1, 96 h exposure
Method: as §1, §2, §3

[5] = tested on: 83 human genes involved in DNA damage signaling responses in Mia-PaCa2 cells; experiment: qPCR array, DNA damage signaling response genes; assay type: cell-based; conditions: Mia-PaCa2 cells, data not shown
Method: Following compound exposure, cells were washed twice in PBS, harvested by trypsinisation, collected by centrifugation (300 g, 5 min, 4° C.) and re-suspended in RLT buffer (Qiagen). Samples were homogenised using QIAshredder spin columns and stored at −80° C. prior to RNA extraction. Three biological replicates were performed on separate days.
The expression of (i) 83 key human genes involved in telomere replication and maintenance, and (ii) 83 human genes involved in DNA damage signaling responses, was assessed using PCR arrays (SABiosciences). Total RNA was extracted from approximately 1×10^7 Mia-PaCa2 cells treated for 24 h with compound 3d, using the RNeasy kit (Qiagen) with on-column DNaseI treatment to remove residual genomic DNA. The quality of the harvested RNA was confirmed by nanodrop spectroscopy and by analysis with a Human RT^2 RNA QC PCR Array. First-strand cDNA synthesis was performed with the RT^2 first strand kit and qPCR was carried out using the RT^2 qPCR master mix (Qiagen) using 0.5 μg total RNA per array plate in a Stratagene MX-3000P instrument (Agilent, USA). Relative gene expression was determined by the ΔΔCT method using the web-based RT^2 Profiler™ PCR Array Data Analysis software (SABiosciences). Data were normalized to the geometric mean of five housekeeping genes (RPLP10, β-actin, B2M, GAPDH and HPRT1).
Various quadruplex-stabilising agents are known to induce pronounced DNA damage responses. We therefore next assessed the effect of 3d on the transcription of genes associated with DNA damage response and repair pathways. For these pathways the effect of a cytotoxic dosage of 3d (160 nM) on Mia-PaCa2 cells was also tested to assess the correlation between compound-induced DNA damage and cell killing. […] The latter two groups appeared to reflect a dynamic switch in the cellular response from low-level growth inhibition up to 40 nM of 3d to cytostatic then cytotoxic effects at 80 nM and 160 nM respectively.
Instead the response was dominated by genes with roles in growth arrest and more general stress responses.

[6] = tested on: MiaPaCa2 (pancreatic) cells; experiment: SRB growth inhibition assay, MiaPaCa2; assay type: cell-based, human
Method: as §1, §2
Dose-response curves were used to guide the choice of compound concentration and time-points for the array experiments (FIG. 2a). […] To explore this response continuum the transcriptional signature of cells exposed for 24 h to 20 nM, 40 nM, 80 nM concentrations of 3d, or solvent alone as control, was analysed as described in Materials and Methods.
as §3

[7] = tested on: telomerase; experiment: TRAP-LIG cellular telomerase activity assay; assay type: cell-based, human; conditions: at the doses relevant to the IC50 values
Method: FIG. 1. Gel showing telomerase activity in MIA-Pa-Ca-2 cells treated with compound 3h after seven days of treatment. Lane 1; untreated cells, lanes 2-4; cells treated increasing concentrations of 3h. Telomerase activity was assessed using the TRAP-LIG assay as described in Materials and Methods. Compound concentrations are indicated. Neg; untreated cells, Pos; positive control. Neg: negative control with telomerase but no ligand.
Telomerase activity was determined using the TRAP-LIG assay, a modified telomere repeat amplification protocol that ensures that there is no carry-over of ligand into the second PCR step of the assay. Briefly, 1 μg of protein from untreated and treated cells were incubated with TS forward primer (0.1 μg of 5′-AAT CCG TCG AGC AGA GTT-3′) at 30° C. for 10 min to allow the initial elongation to take place. Elongated products were purified using the QIAquick nucleotide purification kit (Qiagen) according to the manufacturer's instructions. Eluted samples were freeze-dried and re-dissolved in PCR grade water. Re-dissolved PCR products were subjected to amplification in master mix containing ACX reverse primer (1 μM, 5′-GCG CGG [CTTACC]3 CTA ACC-3′), TS forward primer (0.1 μg), TRAP buffer, BSA (5 μg), 0.5 mM dNTPs, and 2U RedHot TAQ polymerase (ABgene, U.K.) for 35 cycles of 94° C. for 30 s, 61° C. for 1 min, and at 72° C. for 1 min. […]

[8] = tested on: A549 (lung) cells; experiment: SRB growth inhibition assay, 96 hr exposure, A549; assay type: cell-based, human; conditions: Homo sapiens, A549, 96 h exposure
Method: as §1, §2, §3

[9] = tested on: Mia-PaCa2 cells; experiment: Senescence β-galactosidase staining; assay type: cell-based, human; conditions: 7 days treatment
Method: FIG. 4. Micrographs showing the results of staining for evidence of cellular senescence in MiaPaCa2 cells using the β-galactosidase assay. Senescent cells are coloured blue in this procedure. Staining was performed after seven days treatments with (a) vehicle control, ×100 magnification, (b) 3.3 nM of compound 3d, ×200 magnification, (c) 6.6 nM of compound 3d, ×200 magnification, (d) 50 nM of compound 4, ×200 magnification, (e) plot of the percentage of senescent cells at the indicated concentrations of compounds 3d and 4, compared to the background senescence in this cell line (with vehicle control only). Cell counts were performed in triplicate and error bars represent estimated standard deviations.
Senescence detection and quantification experiments were carried out using the Senescence β-galactosidase staining kit (Cell Signalling Technology, MA, USA) according to the manufacturer's protocol. Briefly, 1×10^5 cells were seeded in 6-well plates in 2 ml of medium supplemented with the test compound and incubated for 24 h. Cells were washed (2 ml PBS), fixed (2% formaldehyde and 2% glutaraldehyde in PBS, 15 min, room temperature) and washed (2×2 ml PBS) before staining overnight. Senescent cells, detected by their blue pigmentation, were counted using a light microscope.
CDKN1A encodes the cyclin-dependent kinase p21WAF1 that induces replicative senescence, which is a well-studied consequence of telomerase inhibition and telomere maintenance disruption. […] Compounds 3b and 3d behaved in a similar manner to each other, with concentrations of 3-4 nM being sufficient to result in ˜50-60% of cells becoming senescent after this time-course.

## CN1CCN(CCCNc2cc3c4c(c(NCCCN5CCN(C)CC5)cc5c4c2C(=O)N(CC2CCOCC2)C5=O)C(=O)N(CC2CCOCC2)C3=O)CC1 [Compound 3c, 4,9-bis((3-(4-methylpiperazin-1-yl)propyl)amino)-2,7-bis((tetrahydro-2H-pyran-4-yl)methyl)benzo[lmn][3,8]phenanthroline-1,3,6,8(2H,7H)-tetraone]
[1]
  pIC50: 5.10 to 6.00
[2]
  telomeric quadruplex stabilization (in words): low level of quadruplex binding
[3]
  selectivity for the renal carcinoma cell line 786-0: up to 10 fold

## CN1CCN(CCNc2cc3c4c(c(NCCN5CCN(C)CC5)cc5c4c2C(=O)N(CCCN2CCOCC2)C5=O)C(=O)N(CCCN2CCOCC2)C3=O)CC1 [Compound 3h, 4,9-bis((2-(4-methylpiperazin-1-yl)ethyl)amino)-2,7-bis(3-morpholinopropyl)benzo[lmn][3,8]phenanthroline-1,3,6,8(2H,7H)-tetraone]
[4]
  pIC50: 7.70 to 8.00
[5]
  induction of γ-H2AX: do not appear to induce these particular changes
[6]
  selectivity for Mia-PaCa2 compared to the normal fibroblast line WI-38: ~200 fold
[6]; Homo sapiens, MIA PaCa-2, SRB assay, 96 h exposure, read-out: IC50 Mia-PaCa2
  pIC50: 7.70 to 8.00
[7]
  telomerase activity inhibition: not inhibitors of telomerase activity
[8]
  pIC50: 7.70 to 8.00

## CN1CCN(CCCNc2cc3c4c(c(NCCCN5CCN(C)CC5)cc5c4c2C(=O)N(CCCN2CCN(C)CC2)C5=O)C(=O)N(CCCN2CCN(C)CC2)C3=O)CC1 [Compound 4, reference compound]
[9]
  induction of senescence (in words): strong induction of senescence
